According to patent publication US11234960B2, “Compositions and methods for improving mitochondrial function and treating neurodegenerative diseases and cognitive disorders” (Amazentis SA, priority 2010, dated 2022):

Experiments:
Format in all cases: in vivo
[1] = tested on: maternally separated mice; test: Elevated O-maze in early-life stress mice; settings: 90 mg/kg/day in food (FIG. 40)
Description: At postnatal day 1, pups were culled to have 6 pups per mother. From postnatal day 1 to 14, unpredictable maternal separation (MS) of a period of 3 hours daily was carried out. Maternal separation was performed at random times (from 8 am to 2 pm) to avoid the habituation of the mother to the procedure. The protocol consisted of removing pups from their mother to another cage at room temperature for a 3 hour period, after which the pups were returned to their original nest. These groups are denoted as early-life stress in the figures. A control group of dam/pups was left undisturbed and is denoted in the figures as normal.
One week after maternal separation mice were separated into two groups. One control group received the standard mouse chow diet (Untreated), while the other group received the ellagitannin punicalagin admixed into the food and designed to deliver a dose of 90 mg/kg/day to the mice. Treatment with the diet began 1 week after the termination of the maternal separation treatment. […]
To examine the effect of early life stress, mice were placed at the entrance of one of the areas of the maze with the 5 cm walls, with the nose facing the closed arm, and were allowed to explore the EOM for 5 min. […] The time spent in each arm (closed versus open) was calculated, with an entry into the arm only being considered to have occurred when the animal placed all four paws in the arm.

normal mice = test: Rotarod assay in normal mice; settings: 90 mg/kg/day in diet for 3 months, four trials (FIG. 48)
Description: Beginning at 3 months of age, mice were fed either a standard control diet such as AIN-93G or a diet containing punicalagin to deliver a dose of 90 mg/kg/day for a period of 3 months.
To examine the effect of pomegranate derived compounds on muscle performance and motor skills, mice were tested on the rotarod behavioral assay. The rotarod apparatus consists of a rod with a diameter of 2 cm with 5 compartments, 5 cm wide. A mouse is placed on a rotating rod which is started at an initial speed of 5 rpm. The rod speed is gradually accelerated at a rate of 8 rpm/min. The latency to fall was measured with a cutoff time of 300 seconds. Mice were tested for four trials. The latency to fall is a measure of the muscle performance and motor skills of the mice, with a better performance reflected by a longer latency to fall. Both control untreated and punicalagin-treated mice were tested. […] Punicaligin-treated mice were able to remain on the rotarod for a longer time and at higher speeds compared to untreated mice during sequential trial periods (FIG. 48).

[2] = tested on: C57BL/6J mice exposed to chronic unpredictable stress; test: Contextual fear conditioning in chronically stressed mice; settings: 25 mg/kg/d in diet, daily exposure for four days (FIG. 31)
Description: Three weeks before the initiation of the chronic stress protocol mice were separated into four different groups. One group received standard mouse chow diet (Control), while the remaining three groups received varying doses of extract 1011, an extract derived from pomegranate juice. Low dose corresponded to an extract dose of 21 mg/kg/d of gallic acid equivalents of polyphenols (GAE PPE), the medium dose corresponded to an extract dose of 43 mg/kg/d of GAE PPE, the high dose corresponded to an extract dose of 86 mg/kg/d of GAE PPE (see Table 5).
Three weeks before the initiation of the chronic stress protocol, mice were separated into two groups. […]
The unpredictable chronic stress protocol involved exposing animals to a daily stressful situation at an unpredictable moment for 4 weeks (between 8 am and 4 pm, and randomly distributed over the 28 days). […] All animals were weighed and the state of their coat was evaluated on a regular basis (every 3-5 days). […]
Contextual fear conditioning was used to test the effect of pomegranate extract on anxiety induction (i.e., learned anxiety) in mice in response to contextual recognition. […] To determine the effect of chronic stress and the various doses of pomegranate extract on the level of anxiety induced by this contextual memory, the level of anxiety-induced behavior in response to this context was measured. […]

| Structure (SMILES) | time spent in open sections of O-maze (risk taking) [1] | muscle performance and motor skills, latency to fall from rotarod (normal mice) | extinction of memory of the adverse context (freezing) [2] |
| --- | --- | --- | --- |
| O=C1O[C@H]2[C@@H]3OC(=O)c4cc(O)c(O)c(O)c4-c4c(O)c(O)c5oc(=O)c6c(c(O)c(O)c7oc(=O)c4c5c76)-c4c(cc(O)c(O)c4O)C(=O)OC[C@H]3OC(O)[C@@H]2OC(=O)c2cc(O)c(O)c(O)c2-c2c1cc(O)c(O)c2O (mixture of isomers) [punicalagin, 2,3 hexahydroxydiphenoyl-4,6-gallagylglucose] | reversed and normalized their abnormal excessive risk taking behaviour | significantly improve muscle performance and motor skills | – |
| O=c1oc2cc(O)ccc2c2ccc(O)cc12 [urolithin A, 3,8-Dihydroxydibenzo-α-pyrone] | – | – | significant improvement in adverse memory extinction |
